From US6147098A, “Substituted guanidines and diaminonitroethenes, their preparation and use” (Novo Nordisk A/S, priority 1998, dated 2000)

Columns and labels:
IDDM = settings: animal experiments and early non-blinded experiments in humans; cited from earlier work
rin 5F cells = experiment: 86Rb+ efflux from a β-cell line (increased Rb-efflux in rin 5F cells); format: cell-based; settings: 1 h at room temperature
Description: An opening of KATP -channels will result in an efflux of potassium ions. By measuring the release of ^86 Rb^+ (a radioactive potassium mimic) from e.g. beta-cells pre-incubated in the presence of ^86 Rb^+ the effect of compounds acting as potassium channel openers can be determined. The test expresses the ability of the compounds to regulate the secretion of insulin from the beta-cells.
^86 Rb^+ efflux from a β-cell line
The RIN 5F cell line was grown in RPMI 1640 with Glutamax I, supplemented with 10% fetal calf serum (from GibcoBRL, Scotland, UK) and maintained in an atmosphere of 5% CO2 /95% air at 37° C. The cells were detached with a Trypsin-EDTA solution (from GibcoBRL, Scotland, UK), resuspended in medium, added 1 mCi/ml ^86 Rb^+ and replated into microtiter plates (96 well cluster 3596, sterile, from Costar Corporation,Mass., USA) at a density of 50000 cells/well in 100 μl/well, and grown 24 hours before use in assay.
The plates were washed 4 times with Ringer buffer (150 mM NaCl, 10 mM Hepes, 3.0 mM KCl, 1.0 mM CaCl2, 20 mM Sucrose, pH 7.1). Eighty μl Ringer buffer and 1 μl control- or test compound dissolved in DMSO was added. […] The plates were counted in TopCount (Packard Instrument Company, CT, USA) for 1 min/well at the 32p program. […]

rat aorta rings = experiment: Relaxation of rat aorta rings; format: cell-based; settings: phenylephrine-contracted rat thoracic aorta rings; cumulative addition; read-out: EC50 (concentration required to evoke a 50% relaxation of the tissue)
Description: The activity of the compounds as potassium channel openers can also be measured as relaxation of rat aorta rings according to the following procedure:
A section of rat thoracic aorta between the aortic arch and the diaphragm was dissected out and mounted as ring preparations as described by Taylor P. D. et al, Brit J. Pharmacol, 111, 42-48 (1994).
After a 45 min. equilibration period under a tension of 2 g, the preparations were contracted to achieve 80% of the maximum response using the required concentration of phenylephrine. When the phenylephrine response reached a plateau, potential vasodilatory agents were added cumulatively to the bath in small volumes using half log molar increments at 2 min intervals. Relaxation was expressed at the percentage of the contracted tension. The potency of a compound was expressed as the concentration required to evoke a 50% relaxation of the tissue.

Row | Structure (SMILES) | role against IDDM and cytokine/immune mediated beta-cell destruction (IDDM) | EC50 (rin 5F cells) [µM] | EC50 (rat aorta rings) [µM]
1 | NC(=O)c1cccnc1 [Nicotinamide] | protective role |  | 
2 | CC(C)CCN=C(NC#N)Nc1cc(C(F)(F)F)cc(C(F)(F)F)c1 [Example 1, N-Cyano-N'-(3,5-bis(trifluoromethyl)phenyl)-N"-(3-methylbutyl)guanidine] |  | 2.6 | 5.6
